Results from article PMC4540356 (Thrombosis and haemostasis, 2010).

Tests used:
αvβ3 = details: read-out: affinity of αvβ3 to ligand; ref [30]–[31]; cited from earlier work
integrin αvβ3 [1] = target: T1, integrin αvβ3 (Homo sapiens, UniProt P05106+P06756); experiment: Inhibition of HEK-αvβ3 adhesion to immobilised fibrinogen by soluble peptide; format: cell-based; details: wells coated with 1 μg/ml fibrinogen; 30 min, n=3
HUVEC [2] = experiment: Nitric oxide assay in HUVEC; format: cell-based, human; details: 150 μg/ml TP508 vs 20 μM A23187, 1 h, n=4 (p>0.05)
rat aortic rings = experiment: Muscle-bath assay, carbachol-induced vasorelaxation of rat aortic rings; design: species or system rat (Sprague Dawley); details: no TP508, 500 nM norepinephrine 10 min, cumulative 750 nM carbachol; n=3 aortas
endothelial cells = details: thrombin immobilised to a surface, ref [15]–[17]; cited from earlier work
HUVEC [3] = experiment: Adhesion of HUVEC to immobilised TP508 peptides; format: cell-based, human; details: calcein AM-labelled cells, 30 min, 37°C, fluorescence, n=3
HUVEC [4] = experiment: Inhibition of HUVEC adhesion to immobilised fibrinogen by soluble peptide; format: cell-based, human; details: wells coated with 1 μg/ml fibrinogen; 30 min, n=3
integrin αvβ3 [5] = target: T1, integrin αvβ3; experiment: Surface plasmon resonance, binding to integrin αvβ3; details: BIAcore 2000, CM5 chip, 1,290 RU RAD-TP508, αvβ3 0.053 to 1.06 μM
integrin αvβ3 [6] = target: T1, integrin αvβ3; experiment: Adhesion of HEK-αvβ3 cells to immobilised TP508 peptides; format: cell-based; details: calcein AM-labelled cells, 30 min, 37°C, fluorescence (Ex485/Em530), n=3

T1 sequence (P06756 31-889 limits assumed): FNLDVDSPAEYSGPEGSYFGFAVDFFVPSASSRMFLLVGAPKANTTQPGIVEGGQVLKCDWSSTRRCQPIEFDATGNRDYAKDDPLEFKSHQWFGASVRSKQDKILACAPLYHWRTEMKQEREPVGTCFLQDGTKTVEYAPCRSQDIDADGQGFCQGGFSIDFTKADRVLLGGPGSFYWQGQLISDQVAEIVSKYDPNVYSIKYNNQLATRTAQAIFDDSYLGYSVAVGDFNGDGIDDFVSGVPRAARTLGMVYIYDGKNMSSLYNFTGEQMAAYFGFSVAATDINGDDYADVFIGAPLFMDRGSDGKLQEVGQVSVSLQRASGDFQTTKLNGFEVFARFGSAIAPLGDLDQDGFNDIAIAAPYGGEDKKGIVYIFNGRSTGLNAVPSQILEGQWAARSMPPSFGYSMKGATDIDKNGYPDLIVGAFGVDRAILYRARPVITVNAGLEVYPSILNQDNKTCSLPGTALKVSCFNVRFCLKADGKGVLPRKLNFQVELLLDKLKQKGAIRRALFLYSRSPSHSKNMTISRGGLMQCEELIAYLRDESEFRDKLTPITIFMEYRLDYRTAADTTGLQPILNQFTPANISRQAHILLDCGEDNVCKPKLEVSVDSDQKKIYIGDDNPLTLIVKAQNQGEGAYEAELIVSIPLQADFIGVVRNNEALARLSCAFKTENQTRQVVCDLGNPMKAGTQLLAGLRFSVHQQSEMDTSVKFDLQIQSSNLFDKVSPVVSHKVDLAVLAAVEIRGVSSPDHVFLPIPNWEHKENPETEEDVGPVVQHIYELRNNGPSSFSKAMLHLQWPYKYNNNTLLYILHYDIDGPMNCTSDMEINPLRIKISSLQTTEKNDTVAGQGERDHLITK
T1 sequence (P06756 891-1048 partner limits assumed): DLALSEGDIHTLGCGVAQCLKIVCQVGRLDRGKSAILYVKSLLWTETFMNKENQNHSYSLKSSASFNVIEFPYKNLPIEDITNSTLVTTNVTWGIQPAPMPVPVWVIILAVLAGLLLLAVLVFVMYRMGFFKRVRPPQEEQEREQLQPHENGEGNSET
T1 sequence (P05106 27-788): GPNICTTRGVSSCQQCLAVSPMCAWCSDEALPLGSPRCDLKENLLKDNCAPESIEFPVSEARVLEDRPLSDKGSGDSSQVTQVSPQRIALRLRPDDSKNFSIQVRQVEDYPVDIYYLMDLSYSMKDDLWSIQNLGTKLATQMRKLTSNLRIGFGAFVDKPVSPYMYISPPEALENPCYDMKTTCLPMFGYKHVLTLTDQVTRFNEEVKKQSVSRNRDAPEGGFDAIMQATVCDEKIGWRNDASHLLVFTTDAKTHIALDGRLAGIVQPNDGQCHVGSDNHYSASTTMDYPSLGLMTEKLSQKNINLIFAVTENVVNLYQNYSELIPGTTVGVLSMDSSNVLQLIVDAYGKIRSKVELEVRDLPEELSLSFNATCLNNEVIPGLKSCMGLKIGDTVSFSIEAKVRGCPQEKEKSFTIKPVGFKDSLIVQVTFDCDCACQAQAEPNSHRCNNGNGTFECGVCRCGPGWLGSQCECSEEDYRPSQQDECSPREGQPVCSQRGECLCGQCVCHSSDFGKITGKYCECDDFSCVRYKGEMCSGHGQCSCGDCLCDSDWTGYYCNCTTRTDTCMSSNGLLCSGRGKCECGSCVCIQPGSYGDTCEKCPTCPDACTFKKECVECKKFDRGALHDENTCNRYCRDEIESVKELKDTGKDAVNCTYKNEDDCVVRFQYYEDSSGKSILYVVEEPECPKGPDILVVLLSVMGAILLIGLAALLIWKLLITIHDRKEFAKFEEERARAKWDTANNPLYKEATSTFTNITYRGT

For “vitronectin: physiological ligand of αvβ3”, the Kd (αvβ3) is given as 27 nM.

For GRGDSP, the “effect of soluble peptide on HEK-αvβ3 adhesion to immobilised fibrinogen” value (integrin αvβ3 [1]) was “effectively inhibited cell adhesion”.

With `CNc1ccc2oc(C[C@H]3O[C@@]4(CC[C@H]3C)O[C@H]([C@H](C)C(=O)c3ccc[nH]3)[C@H](C)C[C@H]4C)nc2c1C(=O)O` [A23187] the “NO induction by TP508 compared with A23187” value (HUVEC [2]) was “a potent inducer of NO”.

For `C[N+](C)(C)CCOC(N)=O` [carbachol], the “vasorelaxation by carbachol in rings not treated with TP508, 750 nM” value (rat aortic rings) was 20%.

For Thrombin, the “endothelial cell adhesion to immobilised thrombin” value (endothelial cells) is given as “support endothelial cell adhesion in an RGD-dependent manner”.

With AGYKPDEGKRADACEGDSGGPFV [RAD-TP508] the “adhesion of HUVEC to immobilised peptide” value (HUVEC [3]) was “did not support HUVEC adhesion”, the “effect of soluble peptide on HUVEC adhesion to immobilised fibrinogen” value (HUVEC [4]) was “did not affect HUVEC adhesion to immobilised fibrinogen” and the “binding of αvβ3 to coupled peptide (SPR)” value (integrin αvβ3 [5]) was “No binding”. The “adhesion of HEK-αvβ3 cells to immobilised peptide” value (integrin αvβ3 [6]) was “did not support HEK-αvβ3 adhesion”.

In the case of KAPSEVDKAGDRDGYGFCGGPGE [scrTP508], the “adhesion of HUVEC to immobilised peptide” value (HUVEC [3]) is reported as “did not support HUVEC adhesion”, the “effect of soluble peptide on HUVEC adhesion to immobilised fibrinogen” value (HUVEC [4]) is reported as “did not affect HUVEC adhesion to immobilised fibrinogen” and the “adhesion of HEK-αvβ3 cells to immobilised peptide” value (integrin αvβ3 [6]) is reported as “did not support HEK-αvβ3 adhesion”.

For fibrinogen: Human fibrinogen, the Kd (αvβ3) is listed as 64 nM.
